Where two headings read alike, the source gives them in different places.
Biological target: T1, ALT (Homo sapiens, UniProt P24298)
T1 construct: purchased ASAHI CHEMICAL INDUSTRIES CO., LTD; T-71
T1 sequence (P24298 1-496): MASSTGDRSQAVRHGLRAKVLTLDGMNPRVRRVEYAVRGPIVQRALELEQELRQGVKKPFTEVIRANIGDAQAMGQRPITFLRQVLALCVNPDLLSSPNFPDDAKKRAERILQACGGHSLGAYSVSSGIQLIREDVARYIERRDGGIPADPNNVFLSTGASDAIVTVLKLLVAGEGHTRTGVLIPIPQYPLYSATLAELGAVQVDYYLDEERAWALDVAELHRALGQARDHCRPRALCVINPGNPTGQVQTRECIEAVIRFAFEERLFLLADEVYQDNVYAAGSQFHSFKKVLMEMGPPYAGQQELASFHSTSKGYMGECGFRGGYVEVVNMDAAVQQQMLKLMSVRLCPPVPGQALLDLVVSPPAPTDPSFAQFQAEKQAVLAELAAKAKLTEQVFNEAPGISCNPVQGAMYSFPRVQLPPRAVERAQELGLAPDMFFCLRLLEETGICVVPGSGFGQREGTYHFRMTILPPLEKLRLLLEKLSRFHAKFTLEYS
Experiment: Stabilization effect of amino acids on ALT in control substance (residual activity after storage)
Assay type: biochemical
Conditions: for activity at 10000 µM: 96 h; for remaining activity at 1000 µM: tyrosine 1 mmol/L; for remaining activity at 5000 µM: valine 5 mmol/L; for remaining activity at 20000 µM: valine 20 mmol/L; for remaining activity at 50000 µM: valine 50 mmol/L; for remaining activity at 100000 µM: valine 100 mmol/L
Protocol: Using a human serum base and a BSA base as a medium, control substances were prepared respectively by adding, as a stabilizer, no amino acid, valine (10 mmol/L) as amino acid, proline (10 mmol/L) or other amino acid (10 mmol/L, provided that 1 mmol/L in case of tyrosine) to the respective mediums and then adding, as an enzyme, ALT (about 100 U/L).
The respective control substances thus obtained were stored at 45°C for four days and the residual activity of ALT contained in the respective control substances was measured.
CO., LTD. (manufacturing No. T-71). Furthermore, the human serum base used herein is a human serum base prepared by previously subjecting human serum to a heat treatment at 56°C for four hours thereby to devitalize an endogenous enzyme, followed by sterilization by filtration using a membrane filter of 0.2 µm in a pore diameter. The BSA base used herein is BES buffer (20 mmol/L) containing 3W/V% BSA.
With regard to the residual activity of ALT, the residual activity of ALT was measured by using an ALT reagent L "KOKUSAI" manufactured by INTERNATIONAL REAGENTS CORPORATION.
Valine and r-ALT were added to a human serum base and a BSA base in the concentration of about 100 U/L and, after storage at 45°C for four days, the residual activity was measured.

[1] = BSA base, amino acid 10 mmol/L, r-ALT about 100 U/L, stored at 45°C for four days (Example 1), read-out: Residual activity (%) of ALT
[2] = Human serum base, amino acid 10 mmol/L, r-ALT about 100 U/L, stored at 45°C for four days (Example 1), read-out: Residual activity (%) of ALT
[3] = read-out: Residual activity (%) of ALT, BSA base, amino acid 10 mmol/L, r-ALT about 100 U/L, stored at 45°C for four days (Example 1)
[4] = read-out: Residual activity (%) of ALT, Human serum base, amino acid 10 mmol/L, r-ALT about 100 U/L, stored at 45°C for four days (Example 1)
[5] = BSA base, valine 0.5 mmol/L, 45°C for four days (Example 2)
[6] = BSA base, 45°C for four days (Example 2)
[7] = Human serum base, 45°C for four days (Example 2)

Structure (SMILES)	activity at 10000 µM [1]	activity at 10000 µM [2]	also measured
C[C@H](N)C(=O)O [Alanine]	28%	15%	–
N=C(N)NCCC[C@H](N)C(=O)O [Arginine]	–	–	activity at 10000 µM [3]: 30%; activity at 10000 µM [4]: 18%
NC(=O)C[C@H](N)C(=O)O [Asparagine]	25%	14%	–
N[C@@H](CC(=O)O)C(=O)O [Aspartic acid]	–	–	remaining activity at 10000 µM [1]: 23%; remaining activity at 10000 µM [2]: 13%
N[C@@H](CS)C(=O)O [Cysteine]	24%	14%	–
N[C@@H](CCC(=O)O)C(=O)O [Glutamic acid]	–	–	remaining activity at 10000 µM [3]: 28%; remaining activity at 10000 µM [4]: 15%
NC(=O)CC[C@H](N)C(=O)O [Glutamine]	15%	17%	–
NCC(=O)O [Glycine]	30%	19%	–
N[C@@H](Cc1c[nH]cn1)C(=O)O [Histidine]	28%	15%	–
CC[C@H](C)[C@H](N)C(=O)O [Isoleucine]	28%	18%	–
CC(C)C[C@H](N)C(=O)O [Leucine]	28%	20%	–
NCCCC[C@H](N)C(=O)O [Lysine]	31%	20%	–
CSCC[C@H](N)C(=O)O [Methionine]	31%	20%	–
N[C@@H](CO)C(=O)O [Serine]	32%	19%	–
C[C@@H](O)[C@H](N)C(=O)O [Threonine]	31%	18%	–
N[C@@H](Cc1c[nH]c2ccccc12)C(=O)O [Tryptophane]	30%	18%	–
N[C@@H](Cc1ccc(O)cc1)C(=O)O [Tyrosine]	–	–	remaining activity at 1000 µM (BSA base, r-ALT about 100 U/L, stored at 45°C for four days (Example 1)): 31%; remaining activity at 1000 µM (Human serum base, r-ALT about 100 U/L, stored at 45°C for four days (Example 1)): 18%
CC(C)[C@H](N)C(=O)O [Valine]	62%	55%	Residual activity (%) of ALT [5]: 36%; remaining activity at 500 µM [5]: 38%; remaining activity at 5000 µM [6]: 46%; remaining activity at 10000 µM (BSA base, valine 10 mmol/L, 45°C for four days (Example 2), read-out: Residual activity (%) of ALT): 62%; remaining activity at 20000 µM [6]: 65%; remaining activity at 50000 µM [6]: 64%; remaining activity at 100000 µM [6]: 65%; remaining activity at 500 µM (Human serum base, valine 0.5 mmol/L, 45°C for four days (Example 2)): 28%; remaining activity at 5000 µM [7]: 33%; remaining activity at 10000 µM (Human serum base, valine 10 mmol/L, 45°C for four days (Example 2), read-out: Residual activity (%) of ALT): 55%; remaining activity at 20000 µM [7]: 56%; remaining activity at 50000 µM [7]: 56%; remaining activity at 100000 µM [7]: 55%
N[C@@H](Cc1ccccc1)C(=O)O [phenylalanine]	31%	19%	–
O=C(O)[C@@H]1CCCN1 [proline]	61%	35%	–

Source: patent EP1508617B1, “Method for stabilizing an alanine aminotransferase and the corresponding compositions” (SYSMEX CORPORATION, priority 1998, dated 1999)
